The target in series [1] is T1, protein kinase G 2 (PKG2) (Homo sapiens, UniProt Q13237).
T1 sequence (Q13237 1-762): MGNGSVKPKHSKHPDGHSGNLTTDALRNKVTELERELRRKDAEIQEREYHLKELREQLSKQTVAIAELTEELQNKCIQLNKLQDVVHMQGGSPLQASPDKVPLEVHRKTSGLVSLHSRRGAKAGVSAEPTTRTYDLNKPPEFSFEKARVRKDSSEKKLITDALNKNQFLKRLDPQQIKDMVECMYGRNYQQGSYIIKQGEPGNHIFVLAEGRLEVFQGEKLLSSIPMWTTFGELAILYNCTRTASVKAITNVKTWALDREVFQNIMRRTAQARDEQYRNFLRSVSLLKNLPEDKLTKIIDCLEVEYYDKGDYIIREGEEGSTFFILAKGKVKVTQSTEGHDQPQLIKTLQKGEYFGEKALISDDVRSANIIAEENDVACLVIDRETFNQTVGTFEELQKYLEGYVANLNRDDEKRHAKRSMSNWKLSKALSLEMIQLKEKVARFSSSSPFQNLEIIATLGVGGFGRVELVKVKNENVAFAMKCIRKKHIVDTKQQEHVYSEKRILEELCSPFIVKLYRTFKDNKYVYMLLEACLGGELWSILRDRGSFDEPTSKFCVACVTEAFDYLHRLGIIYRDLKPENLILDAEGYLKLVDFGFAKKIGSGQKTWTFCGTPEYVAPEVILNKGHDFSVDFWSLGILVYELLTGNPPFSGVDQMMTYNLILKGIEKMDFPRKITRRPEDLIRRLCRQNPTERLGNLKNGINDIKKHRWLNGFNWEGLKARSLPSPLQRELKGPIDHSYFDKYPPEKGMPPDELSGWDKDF
Description: Off-target kinase screen PKG2. Format: biochemical. The settings on record: 1 μM test compound. The text has this: (§1) These kinases were chosen because they are the only known off-target hit kinases for eFT508. These assays were done using recombinant human kinases (CLK4, DRAK1 and PKG2) in a substrate phosphorylation assay. % activity remaining after MNK inhibitor treatment is indicated in Table 12.

Series [2] addresses Cdc2-like kinase 4 (CLK4) (Homo sapiens, UniProt Q9HAZ1). Briefly: Off-target kinase screen CLK4. Format: biochemical. Particulars: 1 μM test compound.
Description: as §1

A short description of series [3]: Liver microsome stability, human. It counts as in vitro ADME. Particulars: liver microsomes; for half-life: read-out: Human liver microsomes t1/2.
Another series concerns the target MNK2 (Homo sapiens, UniProt Q9HBH9). Description: MNK2 substrate phosphorylation assay. The settings on record: recombinant human kinase. It counts as biochemical.
Series [4] deals with T2, death-associated protein kinase-related apoptosis-inducing protein kinase 1 (DRAK1) (Homo sapiens, UniProt Q9UEE5).
T2 sequence (Q9UEE5 1-414): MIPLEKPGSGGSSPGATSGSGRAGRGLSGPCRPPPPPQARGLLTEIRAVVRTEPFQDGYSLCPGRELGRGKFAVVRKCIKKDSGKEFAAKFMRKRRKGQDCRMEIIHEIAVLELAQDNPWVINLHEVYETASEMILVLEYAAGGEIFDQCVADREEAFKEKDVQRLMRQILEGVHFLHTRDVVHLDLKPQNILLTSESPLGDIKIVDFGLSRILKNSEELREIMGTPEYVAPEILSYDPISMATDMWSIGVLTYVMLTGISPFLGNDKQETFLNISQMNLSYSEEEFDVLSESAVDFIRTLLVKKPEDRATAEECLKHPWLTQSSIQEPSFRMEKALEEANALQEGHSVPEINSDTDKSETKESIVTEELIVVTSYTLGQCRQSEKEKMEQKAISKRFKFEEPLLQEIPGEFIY
Briefly: Off-target kinase screen DRAK1. It counts as biochemical. The settings on record: 1 μM test compound.
Description: as §1

For the next series, the target named is MNK1 (Homo sapiens, UniProt Q9BUB5). Description: MNK1 substrate phosphorylation assay. Format: biochemical. The settings on record: recombinant human kinase.
Series [5] is described as follows: Liver microsome stability, rat. Particulars: Rat liver microsomes (#); for microsomal CLint: read-out: CLint rodent; for half-life: read-out: Rodent liver microsomes t1/2. It counts as in vitro ADME. (In general: Liver microsomes are a subcellular fraction often used to study metabolism.)
The subject of series [6] is eIF4E phosphorylation at Serine 209 in the human embryonic kidney (HEK) 293 cell line. Description: eIF4E phosphorylation in HEK 293 cells (fluorescent plate reader). Particulars: eIF4E phosphorylation at Serine 209, 2 hours exposure; for pIC50: Homo sapiens. It counts as cell-based. The protocol:
The ability of MNK inhibitors described herein to inhibit eIF4E phosphorylation at Serine 209 in the human embryonic kidney (HEK) 293 cell line was tested by exposing the cells to compound for 2 hours and then measuring eIF4E phosphorylation with a phosphorylation-specific antibody in a fluorescent plate reader. These experiments were done with HEK-293 cells plated on 96 well plates. Following treatment, cells were fixed with ice cold methanol for 10 min and then washed in 1× phosphate buffered saline (PBS) and the permeabilized with 0.02% Triton X-100 in 10% normal goat serum made up in PBS. Primary antibody was applied overnight at a concentration dilution of 1:2000 (p-eIF4E antibody from Cell Signaling ab76256). Following washing, cells were then exposed to secondary antibody conjugated to alexa-fluor 488 and then visualized on a Syngergy HTX plate reader. Fluorescence for p-eIF4E was measured and normalized to total DAPI fluorescence to determine the percentage of eIF4E phosphorylation in each well. Data were plotted in Graphpad Prism V8 to determine concentration-response effects and calculate IC50 values.

The subject of series [7] is eIF4E phosphorylation at Serine 209 in Karpas 299. Description: eIF4E phosphorylation in Karpas 299 cells (sandwich ELISA). Format: cell-based. Particulars: Homo sapiens, read-out: Karpas 299 cell IC50. The procedure:
The ability of MNK inhibitors described herein to inhibit eIF4E phosphorylation at Serine 209 in Karpas 299, Human Non-Hodgkin's Ki-positive Large Cell Lymphoma cell line was tested by sandwich enzyme linked immune-absorbance assay.
(An ELISA detects its analyte on a solid surface through an enzyme-linked reagent.)

In the next series the test system is P-gp (human MDR1, ABCB1). Description: MDCK-MDR1 permeability (blood brain barrier permeability). The settings on record: dog; for efflux ratio at 5 μM: MDCK-MDR1, 5 μM, read-out: Efflux ratio (ratio B-A/A-B); for Papp A→B at 5 μM: MDCK-MDR1, Apical to basolateral transport; for Papp A→B at 5 μM / Papp B→A at 5 μM: average of two experiments; for Papp B→A at 5 μM: MDCK-MDR1, Basolateral to apical transport. It counts as in vitro ADME, Canine.

Series [8] deals with eIF4E phosphorylation at Serine 209 in the human osteosarcoma (U2OS) cell line. Description: eIF4E phosphorylation in U2OS cells (fluorescent plate reader). Format: cell-based. Particulars: eIF4E phosphorylation at Serine 209, 2 hours exposure; for pIC50: Homo sapiens, U2OS. The procedure:
The ability of MNK inhibitors described herein to inhibit eIF4E phosphorylation at Serine 209 in the human osteosarcoma (U2OS) cell line was tested by exposing the cells to compound for 2 hours and then measuring eIF4E phosphorylation with a phosphorylation-specific antibody in a fluorescent plate reader.

Series [9] can be described thus: Liver microsome stability, mouse. It counts as in vitro ADME. Particulars: Mouse liver microsomes (*).

pIC50: −log10 of the molar value.

Chain of MNK1 (Q9BUB5 whole entry): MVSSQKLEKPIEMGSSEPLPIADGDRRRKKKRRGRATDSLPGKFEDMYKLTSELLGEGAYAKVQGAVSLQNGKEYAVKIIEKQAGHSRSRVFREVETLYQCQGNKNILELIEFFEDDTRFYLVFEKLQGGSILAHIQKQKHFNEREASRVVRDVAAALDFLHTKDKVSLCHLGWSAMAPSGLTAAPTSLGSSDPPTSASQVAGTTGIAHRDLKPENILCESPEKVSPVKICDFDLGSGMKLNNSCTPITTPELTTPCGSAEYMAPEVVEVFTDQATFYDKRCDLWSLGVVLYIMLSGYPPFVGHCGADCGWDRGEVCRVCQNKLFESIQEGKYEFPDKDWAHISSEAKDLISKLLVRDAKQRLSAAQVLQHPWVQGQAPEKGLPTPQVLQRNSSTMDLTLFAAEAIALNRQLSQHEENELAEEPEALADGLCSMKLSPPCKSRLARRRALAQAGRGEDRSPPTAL
Chain of Cdc2-like kinase 4 (CLK4) (Q9HAZ1 whole entry): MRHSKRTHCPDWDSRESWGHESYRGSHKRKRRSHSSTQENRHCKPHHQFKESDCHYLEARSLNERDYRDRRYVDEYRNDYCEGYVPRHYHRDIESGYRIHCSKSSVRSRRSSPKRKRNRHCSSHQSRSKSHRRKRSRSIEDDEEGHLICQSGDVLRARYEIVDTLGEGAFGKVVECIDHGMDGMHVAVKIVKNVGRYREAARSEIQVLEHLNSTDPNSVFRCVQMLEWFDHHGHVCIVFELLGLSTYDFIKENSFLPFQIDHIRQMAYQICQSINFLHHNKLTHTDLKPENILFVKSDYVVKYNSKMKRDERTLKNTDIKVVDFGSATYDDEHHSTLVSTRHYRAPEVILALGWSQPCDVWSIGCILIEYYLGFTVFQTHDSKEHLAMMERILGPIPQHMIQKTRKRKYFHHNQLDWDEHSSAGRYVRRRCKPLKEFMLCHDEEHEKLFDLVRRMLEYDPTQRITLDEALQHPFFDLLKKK
Chain of MNK2 (Q9HBH9 whole entry): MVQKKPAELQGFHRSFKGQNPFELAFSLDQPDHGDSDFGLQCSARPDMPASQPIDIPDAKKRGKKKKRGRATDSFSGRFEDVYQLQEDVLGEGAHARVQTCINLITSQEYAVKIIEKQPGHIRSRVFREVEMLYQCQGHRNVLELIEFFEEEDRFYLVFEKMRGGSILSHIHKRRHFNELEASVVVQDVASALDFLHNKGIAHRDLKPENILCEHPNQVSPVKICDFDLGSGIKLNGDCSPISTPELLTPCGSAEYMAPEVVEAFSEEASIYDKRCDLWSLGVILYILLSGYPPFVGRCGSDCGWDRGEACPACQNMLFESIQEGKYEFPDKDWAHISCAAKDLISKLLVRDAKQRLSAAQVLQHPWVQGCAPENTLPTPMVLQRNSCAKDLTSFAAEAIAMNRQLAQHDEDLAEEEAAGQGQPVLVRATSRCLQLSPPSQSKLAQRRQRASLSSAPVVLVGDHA

On to `Cc1cc(Nc2cc(NCCO)ncn2)c(=O)n2c1C(=O)NC21CCCCC1` [Compound 4ET-02-001, 6′-((6-((2-Hydroxyethyl)amino)pyrimidin-4-yl)amino)-8′-methyl-2′H-spiro[cyclohexane-1,3′-imidazo[1,5-a]pyridine]-1′,5′-dione], for which the remaining activity at 1 µM in [1] turned out to be 99%; in series [2], 92%; in series [4], 81%. For the same compound, the microsomal CLint in [3] turned out to be 2.51 µL/min/mg; in series [5], 2.54 µL/min/mg. Moreover, the half-life in [3] amounted to 9.2 h; in series [5] it was 9.1 h. Further, the negative logarithm of the IC50 (pIC50) (usually the IC50 on a negative log10 scale, so that one unit is a factor of ten) at MNK2 is 8.80; at MNK1, 7.40; in series [6] (HEK293, 2 h), 8.15; in series [7] it was 7.77.

For `Cc1cc(Nc2cc(N)ncn2)c(=O)n2c1C(=O)NC21CCC(NS(C)(=O)=O)CC1` (centres unmarked) [Compound 4ET-01-004, N-(6′-((6-Aminopyrimidin-4-yl)amino)-8′-methyl-1′,5′-dioxo-1′,5′-dihydro-2′H-spiro[cyclohexane-1,3′-imidazo[1,5-a]pyridin]-4-yl)methanesulfonamide], the remaining activity at 1 µM came to 100% in series [1], 93% in [2] and 76% in series [4]. In addition, the efflux ratio at 5 μM with P-gp (human MDR1, ABCB1) was determined as 4.4. Also, the Papp A→B – broadly, how fast a substance crosses the layer from the apical side – at 5 μM in the series on P-gp (human MDR1, ABCB1) stood at 0.1 ×10⁻⁶ cm/s. Moreover, in the series with P-gp (human MDR1, ABCB1), the basolateral-to-apical permeability (Papp B→A) (as a rule, how fast a substance crosses the layer from the basolateral side) at 5 μM amounted to 0.3 ×10⁻⁶ cm/s. For the same compound, the results for the microsomal CLint in series [3] and in series [5] were 2.56 µL/min/mg and 9.57 µL/min/mg, respectively. The results for the half-life in series [3] and in series [5] were 9.02 h and 2.42 h, respectively. The pIC50 is 8.09 at MNK2; 6.98 at MNK1; 7.47 in series [6] (HEK293, 2 h).

Consider `Cc1cc(Nc2cc(NCCNS(C)(=O)=O)ncn2)c(=O)n2c1C(=O)NC21CCCCC1` [Compound 4ET-02-004, N-(2-((6-((8′-methyl-1′,5′-dioxo-1′,5′-dihydro-2′H-spiro[cyclohexane-1,3′-imidazo[1,5-a]pyridin]-6′-yl)amino)pyrimidin-4-yl)amino)ethyl)methanesulfonamide], for which the pIC50 in [8] is 7.52; on MNK2, 8.68; at MNK1 it was 7.21; in series [6] (HEK293, 2 h) it was 7.51. Also, the remaining activity at 1 µM was 100% in series [1], 81% in series [2] and 86% in [4]. Moreover, the values for the microsomal CLint in series [9] (read-out: CLint rodent) and in series [3] were 2.5 µL/min/mg and 1.25 µL/min/mg, respectively. In addition, the half-life in series [9] (mouse, liver microsomes, Table 11a, read-out: Rodent liver microsomes t1/2) was found to be 9.25 h; in series [3], 18.5 h. Moreover, the efflux ratio at 5 μM with P-gp (human MDR1, ABCB1) turned out to be 30.2. In the series with P-gp (human MDR1, ABCB1), this compound registered a Papp A→B at 5 μM of 0.3 ×10⁻⁶ cm/s. For the same compound, the Papp B→A at 5 μM with P-gp (human MDR1, ABCB1) was 7.6 ×10⁻⁶ cm/s.

With `Cc1cc(Nc2cc(NCCNS(C)(=O)=O)ncn2)c(=O)n2c1C(=O)NC21CCCC1` [Compound 4ET-03-013, N-(2-((6-((8′-methyl-1′,5′-dioxo-1′,5′-dihydro-2′H-spiro[cyclopentane-1,3′-imidazo[1,5-a]pyridin]-6′-yl)amino)pyrimidin-4-yl)amino)ethyl)methanesulfonamide], the “U2OS cell IC50” value in series [8] was “inactive”. Also, in the series with P-gp (human MDR1, ABCB1), the efflux ratio at 5 μM is 18.1, the apical-to-basolateral permeability (Papp A→B) at 5 μM came to 0.2 ×10⁻⁶ cm/s and the Papp B→A at 5 μM is 3.9 ×10⁻⁶ cm/s. Also, the pIC50 at MNK2 was 8.10. Besides, the pIC50 at MNK1 is 6.69. The “HEK 293 cell IC50” value in series [6] was “inactive”.

Consider `Cc1cc(Nc2cc(NC(=O)C3CC3)ncn2)c(=O)n2c1C(=O)NC21CCCC1` [Compound 4ET-03-017, N-(6-((8′-Methyl-1′,5′-dioxo-1′,5′-dihydro-2′H-spiro[cyclopentane-1,3′-imidazo[1,5-a]pyridin]-6′-yl)amino)pyrimidin-4-yl)cyclopropanecarboxamide], for which the pIC50 in series [8] is 9.40; in [6] (HEK293), 9.05; in series [7] it was 9.00. The remaining activity at 1 µM in [1] turned out to be 100%; in series [2] it was 17%; in series [4], 9%. In addition, the Papp A→B at 5 μM in the series on P-gp (human MDR1, ABCB1) stood at 16.3 ×10⁻⁶ cm/s. In the series on P-gp (human MDR1, ABCB1), this compound had a Papp B→A at 5 μM of 58.9 ×10⁻⁶ cm/s.

As to `Cc1cc(Nc2cc(N)ncn2)c(=O)n2c1C(=O)NC2(C)C` [Compound 4ET-01-003, 6-((6-Aminopyrimidin-4-yl)amino)-3,3,8-trimethyl-2,3-dihydroimidazo[1,5-a]pyridine-1,5-dione], the remaining activity at 1 µM in [1] amounted to 88%; in series [2] it was 91%; in series [4], 65%. Also, the Papp A→B at 5 μM with P-gp (human MDR1, ABCB1) amounted to 9.1 ×10⁻⁶ cm/s. In the series on P-gp (human MDR1, ABCB1), this compound came in with a basolateral-to-apical permeability (Papp B→A) at 5 μM of 13.3 ×10⁻⁶ cm/s. Further, the microsomal CLint worked out at 1.93 µL/min/mg in series [3] and 2.33 µL/min/mg in [5]. Moreover, the half-life was found to be 12 h in series [3] and 9.93 h in [5]. Moreover, the pIC50 is 8.70 on MNK2, 7.98 in series [6] (HEK293) and 7.46 in series [7].

In the case of `Cc1cc(Nc2cc(NC(=O)C(C)C)ncn2)c(=O)n2c1C(=O)NC21CCCC1` [Compound 4ET-03-005, N-(6-((8′-Methyl-1′,5′-dioxo-1′,5′-dihydro-2′H-spiro[cyclopentane-1,3′-imidazo[1,5-a]pyridin]-6′-yl)amino)pyrimidin-4-yl)isobutyramide], the pIC50 was 8.29 in series [8]; 8.74 at MNK2; 7.69 on MNK1; 8.59 in series [6] (HEK293, 2 h); 8.19 in series [7]. The efflux ratio at 5 μM with P-gp (human MDR1, ABCB1) stood at 3.8. The compound also registered an apical-to-basolateral permeability (Papp A→B) at 5 μM in the series with P-gp (human MDR1, ABCB1) of 15.5 ×10⁻⁶ cm/s. The same compound returned a Papp B→A at 5 μM in the series with P-gp (human MDR1, ABCB1) of 58.6 ×10⁻⁶ cm/s. Besides, the microsomal CLint is 0.77 µL/min/mg in series [3] and 4.84 µL/min/mg in [5]. The half-life in series [3] was determined as 29.9 h; in series [5] it was 4.78 h.

Source of the values: patent US20230286983A1 (4E Therapeutics, Inc., priority 2020, published 2023).
